The NIST ThermoML archive (doi:10.1021/acs.jced.8b01159)
Values joined by “and” are separate entries in the source; they are usually repeats but may differ in a detail not shown here. Equal entries are not always repeated. Numbers after ± are expanded uncertainties.

Experiments:
[1] = molar heat capacity at constant pressure; details: 100 kPa, Liquid, Extra sensitive DSC
[2] = Liquid, Closed cell (Static) method

CCN1CCOCC1 [4-ethylmorpholine]
Details	molar heat capacity at constant pressure [J/K/mol]	vapor or sublimation pressure
[1], 270 K	198.1 ± 7.7	–
[1], 275 K	199.6 ± 7.7	–
[1], 280 K	201.1 ± 7.8	–
[1], 285 K	202.8 ± 7.9	–
[1], 290 K	204.5 ± 7.9	–
[1], 295 K	206.4 ± 8	–
[1], 300 K	208.2 ± 8.1	–
[1], 305 K	209.9 ± 8.1	–
[1], 310 K	211.6 ± 8.2	–
[1], 315 K	213.4 ± 8.3	–
[1], 320 K	215.5 ± 8.3	–
[1], 325 K	217.7 ± 8.4	–
[1], 330 K	219.9 ± 8.5	–
[1], 335 K	221.9 ± 8.6	–
[1], 340 K	223.8 ± 8.7	–
[1], 345 K	225.9 ± 8.7	–
[1], 350 K	228 ± 8.8	–
[1], 355 K	230.2 ± 8.9	–
[2], 243.11 K	–	0.01727 ± 0.00058 kPa
[2], 243.12 K	–	0.01728 ± 0.00058 kPa and 0.01725 ± 0.00058 kPa
[2], 248.15 K	–	0.0276 ± 0.00074 kPa and 0.02761 ± 0.00074 kPa
[2], 253.15 K	–	0.0431 ± 0.00099 kPa and 0.04308 ± 0.00099 kPa
[2], 253.16 K	–	0.04305 ± 0.00098 kPa
[2], 258.15 K	–	0.06592 ± 0.0013 kPa
[2], 258.16 K	–	0.06592 ± 0.0013 kPa and 0.06589 ± 0.0013 kPa
[2], 263.16 K	–	0.09902 ± 0.0019 kPa and 0.09898 ± 0.0019 kPa and 0.09893 ± 0.0019 kPa
[2], 268.16 K	–	0.1459 ± 0.0022 kPa and 0.146 ± 0.0022 kPa
[2], 273.17 K	–	0.2112 ± 0.0027 kPa and 0.2111 ± 0.0027 kPa
[2], 278.16 K	–	0.3025 ± 0.0035 kPa
[2], 278.17 K	–	0.3027 ± 0.0035 kPa and 0.3026 ± 0.0035 kPa
[2], 283.17 K	–	0.4244 ± 0.0046 kPa and 0.4243 ± 0.0046 kPa
[2], 288.17 K	–	0.5882 ± 0.0061 kPa and 0.5883 ± 0.0061 kPa and 0.5881 ± 0.0061 kPa
[2], 293.16 K	–	0.8046 ± 0.008 kPa and 0.8045 ± 0.008 kPa
[2], 298.17 K	–	1.086 ± 0.01 kPa and 1.085 ± 0.01 kPa
